Holding throughout (experiment): Colorimetric ALA release activity assay, hemin inhibition of holoenzyme
Common to all, as to assay type: biochemical

The target of experiment [1] is T1, WT holoALAS2 (residues 54–587) (Homo sapiens, UniProt P22557).
T1 construct: His6-SUMO (N, cleaved yes); made in house; host or cells: Escherichia coli BL21-Codon Plus (DE3)-RIL
T1 sequence (P22557 54-587): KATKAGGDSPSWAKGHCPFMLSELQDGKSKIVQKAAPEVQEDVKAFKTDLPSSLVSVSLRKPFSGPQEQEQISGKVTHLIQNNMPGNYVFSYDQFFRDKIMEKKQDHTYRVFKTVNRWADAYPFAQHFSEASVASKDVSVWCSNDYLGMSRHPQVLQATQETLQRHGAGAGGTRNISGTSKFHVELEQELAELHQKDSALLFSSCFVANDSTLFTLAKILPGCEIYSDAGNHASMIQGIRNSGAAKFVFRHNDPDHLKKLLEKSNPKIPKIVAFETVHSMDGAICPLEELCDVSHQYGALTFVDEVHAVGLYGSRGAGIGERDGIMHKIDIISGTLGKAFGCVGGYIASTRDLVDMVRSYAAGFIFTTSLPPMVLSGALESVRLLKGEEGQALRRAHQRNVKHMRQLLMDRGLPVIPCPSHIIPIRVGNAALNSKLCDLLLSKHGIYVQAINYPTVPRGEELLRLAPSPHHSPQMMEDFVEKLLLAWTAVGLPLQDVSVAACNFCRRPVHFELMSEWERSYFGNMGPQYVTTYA
The note with it: 0.1 μM–60 μM hemin titrated into holoALAS2, rate of ALA release. The procedure:
(§1) A discontinuous colorimetric activity assay adapted from Shoolingin-Jordan et al. and Bailey et al. was used to measure the enzyme activity ([48], [74]). The reaction was initiated by adding 100 nM purified enzyme to 50 mM potassium phosphate, pH 7.0, 10 mM MgCl2, 1 mM DTT, 100 mM glycine, and 300 μM succinyl-CoA (175 μl total). The reaction was incubated at 37 °C for 15 min and terminated with 100 μl of cold 10% trichloroacetic acid. The precipitated protein was removed by centrifugation for 5 min at 13,000g, and 240 μl of the supernatant was mixed with 240 μl of 1 M sodium acetate, pH 4.6. To derivatize ALA, 20 μl of acetylacetone was added to the mixture and boiled at 100 °C for 10 min. After the sample was cooled for 20 min, 100 μl aliquots were transferred into a clear 96-well plate in triplicate. An equal volume of Ehrlich’s reagent (p-Dimethylaminobenzaldehyde, DMAB) was added to each well, and the absorbance was monitored at 553 nm using a microplate reader (Thermo Fisher Scientific). The peak absorbance value was converted to molar ALA concentration using ε553 = 60,400 M^−1 cm^−1.
(§2) Inhibition of enzyme activity was determined by titrating hemin (0.1 μM–60 μM) into the substrate mixture before initiating the reaction upon enzyme addition. Hemin was dissolved in 100% dimethyl sulfoxide (DMSO) (ε403 nm = 170,000 M^−1 cm^−1) and serially diluted in 100% DMSO to prepare stock solutions for each concentration. The final DMSO concentration in the reaction mixture was 2%. All experiments were performed with a minimum of three biological replicates, each with three technical replicates. Data were fitted using nonlinear regression to generate an inhibitor dose-response curve (IC50) or an agonist dose-response curve (EC50), and statistical significance was determined using a one-way ANOVA with GraphPad Prism 10.

The target in experiment [2] is T2, holoALAS2 ΔC (residues 54–547) (Homo sapiens, UniProt P22557).
T2 construct: a truncation without the C-terminal CXXC motif (ΔC, residues 54–547); His6-SUMO (N, cleaved yes); made in house; host or cells: Escherichia coli BL21-Codon Plus (DE3)-RIL
T2 sequence (P22557 54-547): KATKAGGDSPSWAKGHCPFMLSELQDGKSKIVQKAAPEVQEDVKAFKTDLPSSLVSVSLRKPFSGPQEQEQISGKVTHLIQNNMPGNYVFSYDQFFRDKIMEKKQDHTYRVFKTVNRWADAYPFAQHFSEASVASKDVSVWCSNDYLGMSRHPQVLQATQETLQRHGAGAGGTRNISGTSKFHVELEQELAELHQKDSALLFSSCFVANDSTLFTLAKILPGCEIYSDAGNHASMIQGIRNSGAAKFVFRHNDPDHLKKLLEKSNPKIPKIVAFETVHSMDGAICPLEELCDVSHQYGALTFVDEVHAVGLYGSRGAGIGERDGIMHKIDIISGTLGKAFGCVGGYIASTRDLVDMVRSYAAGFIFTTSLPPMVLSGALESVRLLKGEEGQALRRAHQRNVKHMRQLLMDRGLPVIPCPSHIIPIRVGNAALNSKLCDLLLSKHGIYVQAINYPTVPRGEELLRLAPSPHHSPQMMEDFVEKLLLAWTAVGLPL
The procedure:
as §1, §2

Experiment [3] addresses T3, holoALAS2 Cys-mut (C70A/C555A/C558A) (Homo sapiens, UniProt P22557, C555A/C558A/C70A).
T3 construct: Site-directed mutagenesis was performed on the mature ALAS2 (residues 54–587) construct to generate truncations and cysteine mutants; His6-SUMO (N, cleaved yes); made in house; host or cells: Escherichia coli BL21-Codon Plus (DE3)-RIL
T3 sequence (P22557 54-587 C70A/C555A/C558A): T1 sequence (P22557 54-587) with C17A, C502A, C505A
As to conditions: 0.1 μM–60 μM hemin titrated into holoenzyme. The method, then: as §1, §2

The results in this text go back to paper PMC12856317, “A reversible feedback mechanism regulating mitochondrial heme synthesis” (The Journal of Biological Chemistry, 2025).

Residue numbers refer to the chain shown, from its start.

In general, IC50 refers to the midpoint of a concentration-inhibition curve. The low end stands for greater potency, the high end for weaker potency. As to ferric chloride heme [hemin], the results for the IC50 in experiment [1], in experiment [2] (0.1 μM–60 μM hemin titrated into holoenzyme) and in experiment [3] were 18.7 ± 0.5 µM, 31.3 ± 0.8 µM and 24.8 ± 0.5 µM, respectively. Further, in experiment [2] (100-fold excess heme), the “residual enzyme activity, of basal activity” value is around 25%.
